Assay: Particle size distribution (Malvern Mastersizer 3000 laser diffraction / Sedigraph sedimentation)
Assay type: physicochemical
From the text: The “particle size” of all particulate materials disclosed herein, with the exception of ground calcium carbonate and precipitated calcium carbonate, is described as volume-based particle size distribution dx(vol). Therein, the value dx(vol) represents the diameter relative to which x % by volume of the particles have diameters less than dx(vol). This means that, for example, the d20(vol) value is the particle size at which 20 vol % of all particles are smaller than that particle size. The d50(vol) value is thus the volume median particle size, i.e. 50 vol % of all particles are smaller than that particle size and the d98(vol) value, referred to as volume-based top cut, is the particle size at which 98 vol % of all particles are smaller than that particle size. […]
All particle sizes described herein, with the exception of the particle sizes of the ground calcium carbonate that was used for the production of the functionalized calcium carbonate and that of precipitated calcium carbonate, refer to the volume-based particle size distribution dx(vol). The volume-based median particle size d50(vol) and top cut d98(vol) are evaluated using a Malvern Mastersizer 3000 Laser Diffraction System (Malvern Instruments Plc., Great Britain). The raw data obtained by the measurement is analyzed using the Fraunhofer theory. […]

Work on `O.O.O.O.O=C([O-])CC(O)(CC(=O)[O-])C(=O)[O-].O=C([O-])CC(O)(CC(=O)[O-])C(=O)[O-].[Ca+2].[Ca+2].[Ca+2]` [Calcium citrate tetrahydrate] yielded a d50 (median particle size) of 6.83 μm and a d98 (top cut particle size) of 80 μm.

— US20210379100A1, “USE OF FUNCTIONALIZED CALCIUM CARBONATE AS ACTIVE INGREDIENT” (OMYA INTERNATIONAL AG, priority 2018, published 2021)
